The target of this test is T1, Phosphodiesterase-6 (Bos taurus, UniProt P11541+P23439).
T1 construct: using an enzyme isolated from bovine retinas at Eurofins-Cerep; tissue Eurofins-Cerep; host or cells: bovine retinas
T1 sequence (P11541 2-856 limits assumed): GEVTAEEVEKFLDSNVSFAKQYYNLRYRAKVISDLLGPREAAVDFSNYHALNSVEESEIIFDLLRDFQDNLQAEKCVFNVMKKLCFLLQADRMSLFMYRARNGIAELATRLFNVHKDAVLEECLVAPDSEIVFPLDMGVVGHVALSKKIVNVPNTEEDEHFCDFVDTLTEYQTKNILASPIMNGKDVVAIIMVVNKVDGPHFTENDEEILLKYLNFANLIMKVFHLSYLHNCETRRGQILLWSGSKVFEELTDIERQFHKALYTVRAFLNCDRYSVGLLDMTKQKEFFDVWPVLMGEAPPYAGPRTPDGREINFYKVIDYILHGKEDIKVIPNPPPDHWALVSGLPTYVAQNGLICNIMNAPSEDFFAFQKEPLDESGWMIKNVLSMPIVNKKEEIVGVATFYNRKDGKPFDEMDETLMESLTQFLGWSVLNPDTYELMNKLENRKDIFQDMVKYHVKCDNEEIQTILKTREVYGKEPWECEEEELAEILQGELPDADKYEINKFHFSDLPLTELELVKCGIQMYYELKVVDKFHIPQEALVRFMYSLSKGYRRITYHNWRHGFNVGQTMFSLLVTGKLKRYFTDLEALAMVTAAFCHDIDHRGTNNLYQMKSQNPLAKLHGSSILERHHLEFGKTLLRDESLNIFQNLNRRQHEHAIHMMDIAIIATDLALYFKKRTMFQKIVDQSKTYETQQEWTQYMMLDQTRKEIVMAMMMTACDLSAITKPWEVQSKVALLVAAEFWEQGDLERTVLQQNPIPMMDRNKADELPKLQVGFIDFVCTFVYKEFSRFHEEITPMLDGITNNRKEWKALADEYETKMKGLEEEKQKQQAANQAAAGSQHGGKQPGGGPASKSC
T1 sequence (P23439 2-850 limits assumed): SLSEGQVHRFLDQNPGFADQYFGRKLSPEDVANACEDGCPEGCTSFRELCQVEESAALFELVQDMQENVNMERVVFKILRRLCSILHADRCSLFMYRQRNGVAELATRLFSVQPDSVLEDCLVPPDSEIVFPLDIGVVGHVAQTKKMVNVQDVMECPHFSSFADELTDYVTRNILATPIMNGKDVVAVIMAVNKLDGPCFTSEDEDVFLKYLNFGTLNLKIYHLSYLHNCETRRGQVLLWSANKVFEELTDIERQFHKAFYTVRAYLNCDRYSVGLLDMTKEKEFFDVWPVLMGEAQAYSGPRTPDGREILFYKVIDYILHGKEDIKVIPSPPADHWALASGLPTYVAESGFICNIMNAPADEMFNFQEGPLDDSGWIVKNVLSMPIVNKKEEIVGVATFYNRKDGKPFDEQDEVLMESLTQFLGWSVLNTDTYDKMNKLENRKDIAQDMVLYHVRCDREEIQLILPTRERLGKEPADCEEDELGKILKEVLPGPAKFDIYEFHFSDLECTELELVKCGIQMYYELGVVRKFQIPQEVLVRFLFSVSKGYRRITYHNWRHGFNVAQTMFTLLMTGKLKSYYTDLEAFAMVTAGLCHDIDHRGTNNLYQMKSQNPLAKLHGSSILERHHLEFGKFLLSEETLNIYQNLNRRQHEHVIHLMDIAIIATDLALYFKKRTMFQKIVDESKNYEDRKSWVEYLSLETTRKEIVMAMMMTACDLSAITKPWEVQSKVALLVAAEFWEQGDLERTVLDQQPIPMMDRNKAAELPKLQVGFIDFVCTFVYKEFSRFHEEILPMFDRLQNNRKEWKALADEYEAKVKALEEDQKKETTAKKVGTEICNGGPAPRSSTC
Description: PDE6 (non-selective) assay. The format is biochemical, bovine. The method, then: The test compound (compound 72), reference compound or water (control) were added to a buffer containing 40 mM Tris/HCl (pH 7.4) and 8 mM MgCl2, 450 nM cAMP and 0.0125 μCi [3H]cAMP. Thereafter, the reaction was initiated by addition of the enzyme (about 1.5 U) and the mixture was incubated for 20 min at 22° C. For basal control measurements, the enzyme was omitted from the reaction mixture. Following incubation SPA beads were added. After 30 min at 22° C. under shaking, the amount of [3H]5′AMP was quantified with a scintillation counter (Topcount, Packard). The results were expressed as a percent inhibition of the control enzyme activity. The standard inhibitory reference compound was Ro 20-1724, which was tested in each experiment at several concentrations to obtain an inhibition curve from which its IC50 value was calculated. • Phosphodiesterase-6 quantified by measuring the formation of 5′GMP from cGMP using an enzyme isolated from bovine retinas at Eurofins-Cerep
The test compound (compound 72), reference compound or water (control) were added to a buffer containing 40 mM Tris/HCl (pH 7.8), 3 mM MgCl2, 1.4 mM DTT, 0.21% BSA, 200 mM NH4Cl, 2 μM cGMP and 0.05 μCi [3H]cGMP. […] After 20 min at 22° C. under shaking, the amount of [3H]5′GMP was quantified with a scintillation counter (Topcount, Packard). The results were expressed as a percent inhibition of the control enzyme activity. […]

One molecule from US20230146675A1, “PYRIMIDO[5,4-d]PYRIMIDINE DERIVATIVES AS ENT INHIBITORS FOR THE TREATMENT OF CANCERS, AND COMBINATION THEREOF WITH ADENOSINE RECEPTOR ANTAGONISTS” (ITEOS BELGIUM SA, priority 2020, published 2023) can be followed below.

By IC50 is commonly meant the concentration at which inhibition is half-maximal.

Where two headings read alike, the source gives them in different places.

Consider `COCCN(CCOC)c1nc(N2CCN(C)C(=O)C2)c2nc(N(CCOC)CCOC)nc(N3CCC(OC)CC3)c2n1` [Compound 72, 4-(2,6-bis(bis(2-methoxyethyl)amino)-8-(4-methoxypiperidin-1-yl)pyrimido[5,4-d]pyrimidin-4-yl)-1-methylpiperazin-2-one], for which the 50% inhibitory concentration (IC50) runs as follows: (read-out: PDE6 (non-selective) IC50) 1 to 10 µM; (read-out: PDE6 IC50) 3.23 µM.
